Laboratory results from PubChem BioAssay AID330 (DTP/NCI, 2004).
Several values for one entry are separate records, joined by “and”; a condition that tells them apart may be missing. Equal entries are not always repeated. Toxic doses and inconclusive results are not listed.

Tested on: P388 leukemia ip, CD2F1 mice, survival T/C
Assay: NCI In Vivo Anticancer Drug Screen. Data for tumor model P388 Leukemia (intraperitoneal) in CD2F1 (CDF1) mice
Details: endpoint: median survival time, higher = longer survival
Summary of the method: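 Mice carrying the transplanted tumor received test compound or vehicle. Survival was recorded in each group, and the value is the treated-group measurement divided by that of the vehicle-treated control group.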

[1] = dose: 3.12 mg/kg/injection, schedule: Q01DX005 (ip), vehicle: Klucel (hydroxypropylcellulose) (HPC)
[2] = dose: 6.25 mg/kg/injection, schedule: Q01DX005 (ip), vehicle: Klucel (hydroxypropylcellulose) (HPC)
[3] = dose: 12.5 mg/kg/injection, schedule: Q01DX005 (ip), vehicle: Klucel (hydroxypropylcellulose) (HPC)
[4] = dose: 50.0 mg/kg/injection, schedule: Q01DX005 (ip), vehicle: Klucel (hydroxypropylcellulose) (HPC)
[5] = dose: 50.0 mg/kg/injection, schedule: Q01DX005 (ip), vehicle: saline with Tween-80
[6] = dose: 50.0 mg/kg/injection, schedule: Q01DX005 (ip), vehicle: saline
[7] = dose: 100.0 mg/kg/injection, schedule: Q01DX005 (ip), vehicle: saline with Tween-80
[8] = dose: 100.0 mg/kg/injection, schedule: Q01DX005 (ip), vehicle: saline
[9] = dose: 200.0 mg/kg/injection, schedule: Q01DX005 (ip), vehicle: saline with Tween-80
[10] = dose: 200.0 mg/kg/injection, schedule: Q01DX005 (ip), vehicle: saline
[11] = dose: 100.0 mg/kg/injection, schedule: Q01DX005 (ip), vehicle: Klucel (hydroxypropylcellulose) (HPC)
[12] = dose: 200.0 mg/kg/injection, schedule: Q01DX005 (ip), vehicle: Klucel (hydroxypropylcellulose) (HPC)
[13] = dose: 60.0 mg/kg/injection, schedule: Q01DX005 (ip), vehicle: saline with Tween-80
[14] = dose: 120.0 mg/kg/injection, schedule: Q01DX005 (ip), vehicle: saline with Tween-80
[15] = dose: 240.0 mg/kg/injection, schedule: Q01DX005 (ip), vehicle: saline with Tween-80
[16] = dose: 15.0 mg/kg/injection, schedule: Q01DX005 (ip), vehicle: saline with Tween-80
[17] = dose: 30.0 mg/kg/injection, schedule: Q01DX005 (ip), vehicle: saline with Tween-80
[18] = dose: 25.0 mg/kg/injection, schedule: Q01DX005 (ip), vehicle: Klucel (hydroxypropylcellulose) (HPC)
[19] = dose: 50.0 mg/kg/injection, schedule: Q01DX009 (ip), vehicle: saline with Tween-80
[20] = dose: 100.0 mg/kg/injection, schedule: Q01DX009 (ip), vehicle: saline with Tween-80
[21] = dose: 200.0 mg/kg/injection, schedule: Q01DX009 (ip), vehicle: saline with Tween-80

SMILES: C=C1C(=O)OC2/C=C(\CO)C3OC3C3OC3(C)CC(OC(=O)/C(=C/C)CO)C12 (stereo not drawn)
- T/C [1]: 99 % of control and 106 % of control
- T/C [2]: 100 % of control and 107 % of control and 110 % of control
- T/C [3]: 105 % of control and 106 % of control
- T/C [4]: 100 % of control and 109 % of control

SMILES: OCc1nccn1-c1ccccc1
- T/C (dose: 25.0 mg/kg/injection, schedule: Q04DX002 (ip), vehicle: suspension in saline): 100 % of control
- T/C (dose: 50.0 mg/kg/injection, schedule: Q04DX002 (ip), vehicle: suspension in saline): 99 % of control
- T/C (dose: 100.0 mg/kg/injection, schedule: Q04DX002 (ip), vehicle: suspension in saline): 107 % of control
- T/C (dose: 200.0 mg/kg/injection, schedule: Q04DX002 (ip), vehicle: suspension in saline): 100 % of control

SMILES: O=NNc1ccc(S(=O)(=O)c2ccccc2)cn1
- T/C (dose: 3.12 mg/kg/injection, schedule: Q01DX009 (ip), vehicle: sodium bicarbonate): 98 % of control
- T/C (dose: 6.25 mg/kg/injection, schedule: Q01DX009 (ip), vehicle: sodium bicarbonate): 98 % of control
- T/C (dose: 12.5 mg/kg/injection, schedule: Q01DX009 (ip), vehicle: sodium bicarbonate): 94 % of control and 96 % of control
- T/C (dose: 25.0 mg/kg/injection, schedule: Q01DX009 (ip), vehicle: sodium bicarbonate): 100 % of control and 104 % of control
- T/C (dose: 50.0 mg/kg/injection, schedule: Q01DX009 (ip), vehicle: sodium bicarbonate): 109 % of control
- T/C (dose: 100.0 mg/kg/injection, schedule: Q01DX009 (ip), vehicle: sodium bicarbonate): 160 % of control

SMILES: Cc1cc(N=Nc2ccc(NC(=O)c3ccc(N)cc3)cc2C)ccc1N=Nc1ccc2cc(S(=O)(=O)O)cc(S(=O)(=O)O)c2c1
- T/C [5]: 97 % of control
- T/C [6]: 107 % of control
- T/C (dose: 50.0 mg/kg/injection, schedule: Q01DX005 (ip), vehicle: suspension in saline): 101 % of control
- T/C [7]: 90 % of control
- T/C [8]: 121 % of control
- T/C (dose: 100.0 mg/kg/injection, schedule: Q01DX005 (ip), vehicle: suspension in saline): 111 % of control
- T/C [9]: 113 % of control
- T/C [10]: 121 % of control
- T/C (dose: 200.0 mg/kg/injection, schedule: Q01DX005 (ip), vehicle: suspension in saline): 113 % of control
- T/C (dose: 400.0 mg/kg/injection, schedule: Q01DX005 (ip), vehicle: saline with Tween-80): 109 % of control

SMILES: COC1=CC(C)C2CC3OC(=O)CC4C(C)=C(OC)C(=O)C(C2(C)C1=O)C34C (stereo not drawn)
- T/C [4]: 95 % of control
- T/C [11]: 101 % of control
- T/C [12]: 101 % of control

SMILES: O=C1OC(C(O)CO)C(O)C1O (stereo not drawn)
- T/C [4]: 99 % of control
- T/C [6]: 94 % of control and 109 % of control and 102 % of control
- T/C [11]: 97 % of control
- T/C [8]: 96 % of control and 105 % of control and 98 % of control
- T/C [12]: 101 % of control
- T/C [10]: 96 % of control and 105 % of control

SMILES: O=S1(=O)C2CCC(Br)C1CCC2Br (stereo not drawn)
- T/C (dose: 1.56 mg/kg/injection, schedule: Q01DX005 (ip), vehicle: Klucel (hydroxypropylcellulose) (HPC)): 99 % of control
- T/C [1]: 103 % of control
- T/C [2]: 100 % of control

SMILES: CCCCCCN=C(N)N/N=C(\C)c1ccc2c(c1)Cc1ccccc1-2
- T/C (dose: 12.5 mg/kg/injection, schedule: Q04DX002 (ip), vehicle: saline with Tween-80): 107 % of control
- T/C (dose: 25.0 mg/kg/injection, schedule: Q04DX002 (ip), vehicle: saline with Tween-80): 100 % of control
- T/C (dose: 50.0 mg/kg/injection, schedule: Q04DX002 (ip), vehicle: saline with Tween-80): 92 % of control
- T/C (dose: 100.0 mg/kg/injection, schedule: Q04DX002 (ip), vehicle: saline with Tween-80): 116 % of control

SMILES: CC(C)(C)C(=O)CC(=O)C(F)(F)C(F)(F)C(F)(F)F.CC(C)(C)C(=O)CC(=O)C(F)(F)C(F)(F)C(F)(F)F.CC(C)(C)C(=O)CC(=O)C(F)(F)C(F)(F)C(F)(F)F.[Gd]
- T/C [13]: 105 % of control
- T/C [14]: 110 % of control
- T/C [15]: 105 % of control

SMILES: COc1ccc2c(N)c3c4ccccc4cc[n+]3cc2c1OC
- T/C (dose: 3.13 mg/kg/injection, schedule: Q04DX003 (ip), vehicle: water): 106 % of control and 112 % of control
- T/C (dose: 6.25 mg/kg/injection, schedule: Q04DX003 (ip), vehicle: water): 106 % of control and 114 % of control
- T/C (dose: 12.5 mg/kg/injection, schedule: Q04DX003 (ip), vehicle: water): 112 % of control
- T/C (dose: 25.0 mg/kg/injection, schedule: Q04DX003 (ip), vehicle: water): 121 % of control

SMILES: O=C1c2ccccc2C(=O)c2c(-c3ccc(Cl)cc3)noc21
- T/C [4]: 94 % of control
- T/C [11]: 93 % of control
- T/C [12]: 90 % of control

SMILES: c1ccc(-c2nc3n(n2)CCC(c2ccccc2)S3)cc1 (stereo not drawn)
- T/C [13]: 92 % of control
- T/C [14]: 89 % of control
- T/C [15]: 87 % of control

SMILES: COc1cc(O)c2c(c1)C(=O)C1=C(C2=O)[C@@H](C)OC(C)C1 (stereo partly drawn)
- T/C [16]: 94 % of control
- T/C [17]: 96 % of control
- T/C [13]: 88 % of control and 94 % of control

SMILES: O=C1c2ccccc2C(=O)N1/N=[N+](\[O-])c1ccccc1
- T/C [18]: 105 % of control
- T/C [4]: 88 % of control
- T/C [11]: 106 % of control
- T/C [12]: 110 % of control

SMILES: COC(=O)C(C)n1c(C)csc1=S (stereo not drawn)
- T/C [5]: 103 % of control
- T/C [7]: 98 % of control

SMILES: O=S(=O)(O)O.[Cu+2].[NH-]CCCCC[NH-].[NH-]CCCCC[NH-]
- T/C (dose: 1.56 mg/kg/injection, schedule: Q04DX002 (ip), vehicle: Klucel (hydroxypropylcellulose) (HPC)): 100 % of control
- T/C (dose: 3.12 mg/kg/injection, schedule: Q04DX002 (ip), vehicle: Klucel (hydroxypropylcellulose) (HPC)): 98 % of control
- T/C (dose: 6.25 mg/kg/injection, schedule: Q04DX002 (ip), vehicle: Klucel (hydroxypropylcellulose) (HPC)): 100 % of control
- T/C (dose: 12.5 mg/kg/injection, schedule: Q04DX002 (ip), vehicle: Klucel (hydroxypropylcellulose) (HPC)): 88 % of control and 98 % of control

SMILES: CCCCCN(CCCCC)CCCCCCCCN1CCCc2ccccc21
- T/C [5]: 106 % of control
- T/C [7]: 108 % of control
- T/C [9]: 117 % of control

SMILES: COc1cccc(OC)c1OCCN1C(=O)c2ccccc2C1=O
- T/C (dose: 50.0 mg/kg/injection, schedule: Q01DX009 (ip), vehicle: Klucel (hydroxypropylcellulose) (HPC)): 100 % of control
- T/C (dose: 100.0 mg/kg/injection, schedule: Q01DX009 (ip), vehicle: Klucel (hydroxypropylcellulose) (HPC)): 100 % of control
- T/C (dose: 200.0 mg/kg/injection, schedule: Q01DX009 (ip), vehicle: Klucel (hydroxypropylcellulose) (HPC)): 105 % of control

SMILES: C=C1C(=O)OC2/C=C(\C=O)C3OC3C3OC3(C)CC(OC(=O)/C(=C/C)CO)C12 (stereo not drawn)
- T/C [1]: 100 % of control
- T/C [2]: 110 % of control
- T/C [3]: 110 % of control
- T/C [18]: 101 % of control

SMILES: COc1cc(C(C)(C)C)cc(OC)c1Br
- T/C [19]: 101 % of control
- T/C [20]: 88 % of control
- T/C [21]: 90 % of control

SMILES: Cc1cc(C)nc(NS(=O)(=O)c2ccc(NC(=O)NCCCl)cc2)n1
- T/C (dose: 30.0 mg/kg/injection, schedule: Q01DX005 (ip), vehicle: Klucel (hydroxypropylcellulose) (HPC)): 106 % of control
- T/C (dose: 60.0 mg/kg/injection, schedule: Q01DX005 (ip), vehicle: Klucel (hydroxypropylcellulose) (HPC)): 107 % of control
- T/C (dose: 120.0 mg/kg/injection, schedule: Q01DX005 (ip), vehicle: Klucel (hydroxypropylcellulose) (HPC)): 100 % of control
- T/C (dose: 240.0 mg/kg/injection, schedule: Q01DX005 (ip), vehicle: Klucel (hydroxypropylcellulose) (HPC)): 114 % of control

SMILES: CC(C)(C)OC(=O)NC1CN(OCc2ccccc2)C1=O (stereo not drawn)
- T/C [5]: 100 % of control
- T/C [7]: 94 % of control
- T/C [9]: 89 % of control

SMILES: CC1(c2ccccc2)NC(=O)N(CC(=O)N(c2ccccc2)c2ccccc2)C1=O (stereo not drawn)
- T/C (dose: 7.5 mg/kg/injection, schedule: Q01DX005 (ip), vehicle: saline with Tween-80): 91 % of control
- T/C [16]: 92 % of control
- T/C [17]: 92 % of control and 93 % of control
- T/C [13]: 87 % of control and 88 % of control
- T/C [14]: 86 % of control
- T/C [15]: 94 % of control

SMILES: CCCCCCCCCCCC(=O)OC1CCC2(C)C(=CCC3C2CCC2(C)C(C(C)CCC(CC)C(C)C)CCC32)C1 (stereo not drawn)
- T/C [19]: 104 % of control
- T/C [20]: 95 % of control
- T/C [21]: 90 % of control

SMILES: CN(C)C(=O)C(=O)C1C=Cc2ccccc21 (stereo not drawn)
- T/C [20]: 100 % of control
- T/C [21]: 90 % of control
- T/C (dose: 400.0 mg/kg/injection, schedule: Q01DX009 (ip), vehicle: saline with Tween-80): 95 % of control
